According to the NIST ThermoML archive (doi:10.1021/je049591p):

Legend:
[1] = for surface tension liquid-gas: Ring tensiometer; for mass density: 101.33 kPa, Liquid
[2] = xn = mol fraction of the nth substance listed; details: Ring tensiometer

OCCO [1,2-ethanediol]
[1]
Details | mass density [kg/m3] | surface tension liquid-gas [mN/m]
293.15 K | 1113.34 | 48.42
298.15 K | – | 48.03
303.15 K | 1106.36 | 47.57
308.15 K | – | 47.2
313.15 K | 1098.39 | 46.78
318.15 K | – | 46.42
323.15 K | 1091.05 | 46.02

OCCO [1,2-ethanediol] + OCc1ccccc1
[2], x2 = 0
Details | surface tension liquid-gas [mN/m]
293.15 K | 48.42
298.15 K | 48.03
303.15 K | 47.57
308.15 K | 47.2
313.15 K | 46.78
318.15 K | 46.42
323.15 K | 46.02

OCc1ccccc1 [benzenemethanol]
[1]
Details | mass density [kg/m3] | surface tension liquid-gas [mN/m]
293.15 K | 1045.2 | 39.05
298.15 K | 1041.4 | 38.58
303.15 K | 1037.5 | 38.12
308.15 K | 1033.6 | 37.63
313.15 K | 1029.8 | 37.16
318.15 K | 1025.8 | 36.63
323.15 K | 1021.9 | 36.18

OCc1ccccc1 [benzenemethanol] + OCCO
surface tension liquid-gas [mN/m], [2]
Details | 293.15 K | 298.15 K | 303.15 K | 308.15 K | 313.15 K | 318.15 K | 323.15 K
x1 = 0.0319 | 47.78 | 47.35 | 46.92 | 46.54 | 46.14 | 45.71 | 45.26
x1 = 0.0535 | 47.45 | 47.01 | 46.53 | 46.07 | 45.66 | 45.24 | 44.79
x1 = 0.0727 | 47.13 | 46.67 | 46.15 | 45.72 | 45.26 | 44.86 | 44.32
x1 = 0.0854 | 46.69 | 46.19 | 45.76 | 45.31 | 44.85 | 44.41 | 43.91
x1 = 0.1118 | 45.87 | 45.43 | 44.9 | 44.46 | 44.04 | 43.53 | 43.06
x1 = 0.206 | 44.07 | 43.61 | 43.08 | 42.6 | 42.12 | 41.67 | 41.16
x1 = 0.2633 | 42.87 | 42.42 | 41.87 | 41.39 | 40.84 | 40.4 | 39.9
x1 = 0.3883 | 41.53 | 41.07 | 40.61 | 40.14 | 39.7 | 39.24 | 38.76
x1 = 0.5596 | 40.58 | 40.18 | 39.68 | 39.24 | 38.77 | 38.27 | 37.79
x1 = 0.7394 | 39.44 | 38.95 | 38.45 | 37.94 | 37.51 | 36.99 | 36.53
x1 = 0.9101 | 39.28 | 38.79 | 38.3 | 37.79 | 37.35 | 36.84 | 36.38
x1 = 1 | 39.05 | 38.58 | 38.12 | 37.63 | 37.16 | 36.63 | 36.18
